Consider six molecules from paper PMC10115881, “Disrupting the α-synuclein-ESCRT interaction with a peptide inhibitor mitigates neurodegeneration in preclinical models of Parkinson’s disease” (Nature Communications, 2023).

No end group written: not given here. *: point of attachment. FITC = O=C1OC2(c3ccc(O)cc3Oc3cc(O)ccc32)c2ccc(NC(=S)*)cc21

For assay [1], the system named is LC3-HiBiT reporter in HEK293 cells. As to the kind of experiment: Autophagy flux assay (LC3-HiBiT reporter), HEK293 cells. It is filed as cell-based, human. The text has this: Autophagic flux was quantitatively measured with the Autophagy LC3-HiBiT Reporter Assay System which was purchased from Promega (GA1040) and used according to the manufacturer’s instructions. When autophagy is induced, the cytosolic LC3-I fusion protein is recruited to phagophores where it becomes conjugated to phosphatidylethanolamine to form LC3-II. Upon phagophore membrane elongation and closure to form the mature autophagosome, a significant fraction of tethered LC3 protein becomes captured within the lumen together with various cargo. Subsequently, autophagosomes fuse with lysosomes to form autolysosomes, leading to the ultimate degradation of both cargo and the captured LC3 reporter protein. Thus, changes in the total level of the LC3 reporter protein can be used to monitor changes in autophagic flux. HEK293 cells (ATCC, CRL-1573) stably expressing the LC3-HiBiT reporter were trypsinized from subconfluent culture and seeded in a 10 cm plate at a density of 3.0 × 10^6 per plate. Cells were incubated overnight at 37 °C in 5% CO2. Cells were transfected with FLAG-peptide plasmids in combination with pcDNA or A53T a-syn plasmids. After 24 h, cells were trypsinized and seeded in triplicate in a white flat-bottomed 96-well plate at a density of 20,000 cells per well. Cell medium was replaced the next day with fresh medium containing DMSO, Rapamycin, or Bafilomycin A1 and incubated for 24 h at 37 °C with 5% CO2. 80 µL of Working prewarmed Nano-Glo® HiBiT lytic buffer containing HiBiT substrate and LgBit protein (N3030) were added to each well containing 20 µL of cell medium and left to incubate on a rocker for 10 min. Samples were read using a luminometer with a 480 nm filter with measured RLU being directly proportional to HiBiT-conjugated LC3.
For orientation: The HiBiT peptide binds its large partner to form an active luciferase.

Assay [2] has as its system A53T a-syn expressing HEK293 cells. As to the kind of experiment: Cell Titer-Glo cell viability, A53T a-syn expressing cells. It is filed as cell-based, human. Conditions: A53T a-syn cells. The method, then: Oligonucleotides encoding the specific peptides were synthesized and individually cloned into the pLJM1 nGFP lentiviral vector. HEK293T cells were infected with individual constructs, and cell viability was assessed using Cell Titer-Glo luminescent assay (Promega) at 72 h post infection.
Cells were trypsinized from subconfluent cultures as described earlier, suspended in culture media, and then seeded into triplicate wells of a 96-well plate (100 µl/well) at a density of 1.5 × 10^4 cells per well with standard culture conditions of 5% CO2 at 37 °C. Cells were infected with lentivirus expressing peptide at a MOI of 5 for 72 h or transfected with plasmid for 72 h. Cell Titer-Glo reagent was added to each well (30 µL), according to the manufacturer’s protocol and […].

Assay [3] relates to A53T a-syn. Put plainly: A53T a-syn protein level in HEK293 cells by immunoblot. It is filed as cell-based, human. The method, then: Infected or transfected cells were scraped from six-well dishes and lysed with lysis buffer (50 mM Tris-HCl pH 7.4, 1% Nonidet P-40, 150 mM NaCl, 1 mM EDTA, 1× protease inhibitor mixture (Sigma)) for 30 min at 4 °C. The insoluble pellet was removed following a 10,000 rpm spin for 5 min at 4 °C. Lysates were analyzed by SDS-PAGE/immunoblot using 4–20% Mini-PROTEAN Tris-glycine gels (Bio-Rad), transferred to polyvinylidene fluoride (PVDF) membranes, and blocked in 5% milk containing PBS-Tween-20 (0.1%) for 1 h. PVDF membranes were then incubated with specified primary antibodies followed by incubation with horseradish peroxidase-conjugated secondary antibodies (anti-mouse HRP-linked, Cell Signaling, catalog #7076, 1:5000; anti-rabbit HRP-linked, Cell Signaling, catalog #7074, 1:5000) and detected using enhanced chemiluminescence (GE Healthcare). Anti-a-syn antibody (clone 42) was obtained from BD Biosciences (catalog #610787, 1:1000). Anti-LAMP1 antibody was obtained from Abcam (catalog #ab24170, 1:500). Anti-beta-actin antibody was obtained from Cell Signaling (13E5) (catalog #4970, 1:1000). Anti-CD63 antibody was obtained from R&D Systems (catalog #MAB50482-SP, 1:1000).
A general note: In western blotting, separated proteins are transferred to a membrane and probed.

The target in assay [4] is VPS4. Particulars: motif-domain interaction; read-out: CHMP2B-VPS4 interaction affinity; cited from earlier work. From the text:
CHMP2B has been reported to bind to Vacuolar Protein Sorting 4 (VPS4), an AAA-type adenosine triphosphatase. This interaction is mediated by the C-terminal MIM on CHMP2B and a Microtubule Interacting and Trafficking (MIT) domain on VPS4. […] However, we also noted that many CHMP proteins can self-interact and have been reported to multimerize, which may contribute to their function. In particular, CHMP2B can self-interact[30] and is thought to polymerize at the budding of membranes during endosome formation. ...

Assay [5] relates to PDE dopaminergic neurons of A30P a-syn C. elegans. As to the kind of experiment: C. elegans PDE neurite length assay. It counts as in vivo. As for the experimental part:
C. elegans strains were grown and maintained under standard conditions at 22–23 °C [66]. BZ555 [dat-1p::gfp] was obtained from the C. elegans Genetics Center (CGC; University of Minnesota, St Paul, MN, USA), TWH1 ([dat-1p::a-syn(A30P), ges-1p::DsRed]; [dat-1p::gfp]) was obtained by crossing BZ555 with A30P a-syn transgenic animals (kindly provided by Dr. Takeshi Iwatsubo, University of Tokyo)[67].
The peptide construct (pPD97.78_osm-6p_TagRFP_wpeptide) was obtained by subcloning the following fragments into NheI and SpeI sites of pPD97.78 (A. Fire): NheI-AgeI […] fragment (2.4 kb) obtained by PCR using primer set 5′-[…]-3′ and 5′-[…]-3′ and N2 genomic DNA as a template, AgeI-EcoRI TagRFP fragment obtained by PCR using primer set 5′-gttgaccggt[…]-3′ and 5′-ggcagaattcga[…]-3′, EcoRI-SmaI peptide ([…]) fragment digested from CMV_[…]_worm, SmaI-SpeI unc-54 3′-UTR fragment digested from pPD95.75 (Fire vector). The TagRFP control construct was obtained by replacing the EcoRI-SmaI peptide fragment and SmaI-SpeI unc-54 3′-UTR fragment from pPD97.78_osm-6p_TagRFP_wpeptide, to EcoRI- SpeI unc-54 3′-UTR fragment digested from pPD95.75[68].
Each plasmid (40 ng/µl) was injected with a co-injection marker, sur-5p::mCherry into TWH1. The animals carrying the extrachromosomal arrays were transferred to new plates, and their progenies were analyzed at the adult stage under a widefield microscope (Zeiss AxioObserver). Pearson Chi-square test was used for statistical analysis.

For assay [6], the target named is T1, purified recombinant CHMP2B (UniProt Q9UQN3 1-213).
T1 construct: CHMP2B from the vector pET-DEST42 CHMP2B; eluted as a 26 kDa monomer; Removal of tags is not described; source: E. coli Overexpress C41, inclusion bodies, purified (Ni-NTA in guanidine HCl, dialysis, SEC)
Put plainly: fluorescence polarisation; FITC-peptide constant at 50 nM, CHMP2B serially diluted 1:1 from 30 μM; 50 mM Na phosphate pH 5.5 or 20 mM Na acetate pH 5.5, 0.5 mM TCEP, 0.005% Triton-X-100; 30 min at room temperature. Conditions: both partners purified.

Assay [7] has as its target T2, purified VPS4B (Vacuolar Protein Sorting 4) (UniProt O75351 1-444).
T2 chain: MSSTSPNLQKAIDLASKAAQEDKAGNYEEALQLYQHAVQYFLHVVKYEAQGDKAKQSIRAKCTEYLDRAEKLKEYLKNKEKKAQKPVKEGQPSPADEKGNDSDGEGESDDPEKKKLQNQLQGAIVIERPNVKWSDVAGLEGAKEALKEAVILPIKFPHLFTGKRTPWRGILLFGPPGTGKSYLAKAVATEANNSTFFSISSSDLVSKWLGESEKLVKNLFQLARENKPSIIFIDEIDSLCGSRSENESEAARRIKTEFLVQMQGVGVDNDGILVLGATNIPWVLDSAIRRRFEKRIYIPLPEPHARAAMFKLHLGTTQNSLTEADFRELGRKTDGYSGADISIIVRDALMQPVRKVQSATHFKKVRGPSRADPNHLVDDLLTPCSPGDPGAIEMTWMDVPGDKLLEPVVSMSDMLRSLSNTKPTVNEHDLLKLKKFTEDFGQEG
Put plainly: FP.

Assay [8] concerns the target T3, purified VPS4B (Vacuolar Protein Sorting 4) (UniProt O75351 1-444).
T3 construct: VPS4B expressed as a His-tagged Sumo construct in a pRSet B vector; The results speak of 'VPS4'; VPS4B is the only VPS4 protein whose purification is described; source: E. coli Overexpress C41, purified (Ni-NTA)
T3 sequence (looked up): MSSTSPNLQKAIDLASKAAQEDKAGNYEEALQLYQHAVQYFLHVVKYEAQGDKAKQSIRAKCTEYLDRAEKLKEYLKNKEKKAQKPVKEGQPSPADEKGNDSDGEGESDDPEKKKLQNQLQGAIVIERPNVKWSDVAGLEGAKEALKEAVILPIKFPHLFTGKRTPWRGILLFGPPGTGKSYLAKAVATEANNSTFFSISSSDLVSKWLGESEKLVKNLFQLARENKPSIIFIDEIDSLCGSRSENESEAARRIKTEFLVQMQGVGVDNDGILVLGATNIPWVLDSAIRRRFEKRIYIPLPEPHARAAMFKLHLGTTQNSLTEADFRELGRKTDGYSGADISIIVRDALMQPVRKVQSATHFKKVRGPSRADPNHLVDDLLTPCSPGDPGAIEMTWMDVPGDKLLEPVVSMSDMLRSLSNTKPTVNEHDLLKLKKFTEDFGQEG
Put plainly: not stated; 'our affinity measurements' of PDpep1.3 with VPS4 (Fig. S1G). Particulars: both partners purified.

T1 sequence (Q9UQN3 whole entry): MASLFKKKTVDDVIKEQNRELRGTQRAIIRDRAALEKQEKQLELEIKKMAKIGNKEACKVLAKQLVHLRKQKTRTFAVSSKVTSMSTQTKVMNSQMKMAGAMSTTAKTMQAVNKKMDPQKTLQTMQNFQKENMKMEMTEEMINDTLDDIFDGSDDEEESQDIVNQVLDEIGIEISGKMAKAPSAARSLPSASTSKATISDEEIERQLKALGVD

For `CO/C1=C\C(C)=C\[C@@H](C)[C@@H](O)[C@@H](C)C/C(C)=C/C=C/[C@H](OC)[C@@H]([C@@H](C)[C@@H](O)[C@H](C)[C@@]2(O)C[C@@H](O)[C@H](C)[C@@H](C(C)C)O2)OC1=O` [bafilomycin A1], in assay [1], the “Effect on autophagic flux” value is “increases LC3 reporter levels and luminescent signal”.
Same read-out and setting: next, `CO[C@H]1C[C@@H]2CC[C@@H](C)[C@@](O)(O2)C(=O)C(=O)N2CCCC[C@H]2C(=O)O[C@H]([C@H](C)C[C@@H]2CC[C@@H](O)[C@H](OC)C2)CC(=O)[C@H](C)/C=C(\C)[C@@H](O)[C@@H](OC)C(=O)[C@H](C)C[C@H](C)/C=C/C=C/C=C/1C` [rapamycin]: “decreased LC3 reporter levels and luminescent signal”.
“CHMP2B: CHarged Multivesicular body Protein 2B, full-length”: the “Effect on cell survival/viability” value in assay [2] is “rescues a-syn cytotoxicity”. Further, the “Effect on A53T a-syn protein level” value in assay [3] is “reduces a-syn levels”. Besides, in assay [4], the Kd is 178 µM.
Regarding FEELEAQLARLR [TagRFP::peptide], the “Effect on PDE neurite shortening” value in assay [5] (A30P human a-syn) is on record as “partially rescued”. Moreover, in assay [5] (a-Syn (A30P), Marker +, adult), the “Proportion displaying Long PDE neurite length” value is reported as 36.95%, the “Proportion displaying Medium PDE neurite length” value is listed as 48.43% and the “Proportion displaying Short PDE neurite length” value was found to be 14.62%.

B1: FITC-labeled a-syn peptide, amino acids 103-114 (NEEGAPQEGILE) (peptide)
peptide: {FITC}-NEEGAPQEGILE
notes: α-synuclein amino acids 103-114; also called a-syn peptide fragment; source: synthetic peptide (LifeTein)
As for B1, in assay [6], the Kd amounted to 640 nM.

B2: FITC-labeled PDpep1.3 peptide (peptide)
peptide: {FITC}-DEEIERQLKALG
notes: stretch of the C-terminal region (MIM) of CHMP2B; also called FITC-PDpep1.3; source: synthetic peptide (LifeTein)
Turning to B2, the Kd was around 200 µM in assay [7], above 100 µM in assay [8] and 1800 nM in assay [6].
